Several values for one entry are separate records, joined by “and”; a condition that tells them apart may be missing. Identical values can stand only once.

Experimental findings from patent US10450549B2, “Aryloxyphenoxypropionate tolerance in turfrgass species and use of AAD1 as a selectable marker” (Dow AgroSciences, LLC, priority 2004, dated 2019) are described below.

Assay [1] deals with F1 progeny of ‘Crenshaw’ creeping bentgrass pDAB5042 events. Kind of assay: AAD1 whole-plant selectable marker: F1 progeny of Crenshaw pDAB5042 events x elite lines, injury to 240 g ae/ha quizalofop-p-ethyl. The assay is classed as in vivo. As to the method:
The use of AAD1 as a selectable marker for quizalofop selection agent was tested with an “F1” generation of plants that were produced by crossing selected single copy pDAB5042 ‘Crenshaw’ events with non-transgenic elite lines (lines 3425-12, 3427-2, or 3431-1). ‘Crenshaw’ events were vernalized in a growth chamber; elite line crossing partners were field vernalized. Nearing the time of bloom, a non-transgenic plant at the same reproductive stage was moved into the growth chamber in close proximity of the pDAB5042 event. Panicles were secured together with a twist tie, and both panicles were bagged together and labeled. Alternatively, to increase the number of crosses, some panicles were excised and secured to an intact panicle and bagged. At seed harvest, individual seed heads were removed and packaged individually.
Seed were sown on flats containing Metromix™, and germinated in a growth chamber. All emerged seedlings were transplanted into growth medium prepared by mixing Promix® and sand in a 2 to 1 ratio. The medium was contained in plastic pots with a surface area of 84.6 square centimeters (cm^2). Plants were maintained in a greenhouse until established. Leaf tissue from each seedling was harvested for molecular analysis, and tissues were probed for the presence of AAD1. After tissue harvest, the established plants were trimmed to simulate mowing.
The same two plants were the only plants testing positive for one copy of AAD1.

Assay [2] deals with ‘Justice’ tall fescue transgenic events. Kind of assay: Quizalofop on AAD1 ‘Justice’ tall fescue plants. The assay is classed as in vivo. To be noted: written in present tense. As to the method:
‘Justice’ tall fescue transgenic plants events were selected on tissue culture media containing quizalofop, and confirmed via PCR amplification of an inserted T-strand.
A growth medium was prepared by mixing Promix® and sand in a 2 to 1 ratio. The medium was contained in plastic pots. When required to maintain plant health, a fungicide, insecticide, and/or other chemical or physical treatment was applied to stock plants. The plants were maintained in a greenhouse and treated with fertilizer and growth supplements as needed and water was added on a regular basis. Supplemental lighting was provided.
The selected T0 plants are sprayed with quizalofop at rates ranging in concentration, beyond the typical in field usage rate. This rate structure is selected based on the GR90 (herbicide rate which produces 90% injury and/or growth inhibition) and the rate that would also control susceptible monocot weed species. […]
The treated plants and control plants are placed in a greenhouse and watered by sub-irrigation to prevent wash-off of the test compounds. At various times after application, the condition of the test plants as compared with that of the untreated plants is determined visually and scored on a scale of 0 to 100 percent, where 0 corresponds to no injury or growth inhibition, and 100 corresponds to complete kill. […]

The next assay relates to AAD1 (v3) rice plantlets. In words: Rice tolerance testing with Assure II (sensitivity or resistance 10-14 DAT). The class given is in vivo, Oryza sativa L. japonica cv. Taipei 309. As to conditions: 140 g ae/ha. As for the experimental part: This concentration corresponds to approximately 140 g ae/ha. Each plant was spayed in a fume hood at a distance of 8-12 inches with 6 full squirts of the sprayer directed so that the entire plant was covered with an equal portion of herbicide. Each squirt delivered approximately 100 μl solution to the plantlet. Once sprayed, plantlets were allowed to dry for one hour before being moved out of the fume hood.

In assay [3] the test system is non-transformed (NT) ‘Shamrock’ Kentucky bluegrass. In words: Haloxyfop-R-methyl on non-transformed Kentucky bluegrass controls. The assay is classed as in vivo. As to conditions: similar treatment regimes. As for the experimental part: The selected T0 plants were sprayed with haloxyfop-R-methyl (Gallant Super®, DOW AGROSCIENCES, INC.) at rates ranging from 140 to 560 g ae/ha. […] This rate would also control susceptible monocot weed species. Measured amounts were placed individually in 25 mL glass vials and dissolved in a 12 mL volume of 1.0% (v/v) Agri-Dex® Crop Oil Concentrate (COC).
Spray solutions were applied to the plant material with an overhead Mandel™ track sprayer equipped with a 8002E nozzles calibrated to deliver 187 L/ha over an application area of 0.503 square meters (m^2) at a spray height of 18 inches (46 cm) above average plant canopy height. Control plants were sprayed in the same manner with the COC blank.
The treated plants and control plants were placed in a greenhouse and watered by sub-irrigation to prevent wash-off of the test compounds. At various times after application, the condition of the test plants as compared with that of the untreated plants was determined visually and scored on a scale of 0 to 100 percent, where 0 corresponds to no injury or growth inhibition, and 100 corresponds to complete kill. Regenerated, non-transformed (NT) ‘Shamrock’ Kentucky bluegrass plants and/or seed-derived clonally propagated plants served as haloxyfop sensitive controls.

Consider `CCOC(=O)[C@@H](C)Oc1ccc(Oc2cnc3cc(Cl)ccc3n2)cc1` [quizalofop-p-ethyl], for which the “Visual Injury 39 DAA” value in assay [1] (F1 progeny of 3431-1 × pDAB5042 Event 162) was 100%; in assay [1] (F1 progeny of NT6 × pDAB5042 Event 186) it was 95%; in assay [1] (individual F1 progeny of 3427-2 × pDAB5042 Event 186) it was 60% and 80% and 95% (4×) and 90% and 99% (3×) and 85% and 100% (2×); in assay [1] (individual F1 progeny of 3431-1 × pDAB5042 Event 127), 90% (4×) and 95% (4×) and 100% (6×) and 99%; in assay [1] (individual F1 progeny of 3431-1 × pDAB5042 Event 186) it was 100% (6×) and 99% (10×) and 95% (8×) and 80% (2×) and 90%; in assay [1] (individual F1 progeny of pDAB5042 Event 127 × 3431-1) it was 99% (3×) and 95%. Also, the “Visual Injury 39 DAA” value is 99% and 100% in assay [1] (individual F1 progeny of pDAB5042 Event 144 × 3425-12); 0% in assay [1] (individual F1 progeny of pDAB5042 Event 186 × 3425-12 (asterisk: AAD1 positive)); 99% (4×) and 100% (2×) and 90% in assay [1] (individual F1 progeny of pDAB5042 Event 186 × 3431-1); 90% and 100% (2×) in assay [1] (individual progeny of NT6 × 3427-2).
In the case of `C[C@@H](Oc1ccc(Oc2cnc3cc(Cl)ccc3n2)cc1)C(=O)O` [quizalofop], the “injury of tall fescue events compared to non-transgenic control plants” value in assay [2] is listed as “less injury”. Also, the “Rating for sensitivity or resistance” value with AAD1 (v3) rice plantlets (Control rice plant) was “Dead”; in the assay on AAD1 (v3) rice plantlets (rice plant 63-1A), “No injury”; in the assay on AAD1 (v3) rice plantlets (rice plant 63-1F) it was “No injury”; in the assay on AAD1 (v3) rice plantlets (rice plant 63-4B), “No injury”; with AAD1 (v3) rice plantlets (rice plant 63-4D), “No injury”; with AAD1 (v3) rice plantlets (rice plant 63-6C), “Dead”.
In the case of `CC(Oc1ccc(Oc2ncc(C(F)(F)F)cc2Cl)cc1)C(=O)O` (stereo not drawn) [haloxyfop], the “injury of control, non-transgenic plants” value in assay [3] is 60-100%.
